Results on six compounds are retold here after patent US11839216B1, “Quinoline-2,3-fused nine-membered ring scaffold compound, and preparation method and application thereof as effective component in plant fungicide” (QINGDAO AGRICULTURAL UNIVERSITY, priority 2022, dated 2023).

Molecules are shown by their SMILES.

Common to all, as to assay: antibacterial activity by mycelial growth rate method
What all share (assay type): cell-based

The test system of one experiment is C. gloeosporioides. Conditions: Colletotrichum gloeosporioides; for inhibition at 25 µg/mL: 25 mg/L; for inhibition at 50 µg/mL: 50 mg/L; for inhibition at 100 µg/mL: 100 mg/L. On the procedure: (§1) Five common strains of C. gloeosporioides, V. mali, F. oxysporum, B. cinerea and G. graminis were selected, and the antibacterial activity of the compounds was tested by a mycelial growth rate method (Ann. Appl. Biol., 2008, 152, 369). The above strains for test were provided by Shangdong Biopesticide Engineering Research Center. Firstly, a certain amount of potato dextrose agar (PDA) was weighed and placed in a wide neck flask, distilled water was added to the wide-necked flask, to prepare a culture medium, and the culture medium was placed in an autoclave for sterilization at 120° C. for half an hour. 1 mg of drugs to be tested were weighed and dissolved in 10 mL of acetone to prepare 100 mg/L of agents, a half of agents therein were taken and diluted with the acetone to 10 mL to prepare 50 mg/L of agents, and 25 mg/L, 12.5 mg/L and 6.25 mg/L of agents might be prepared in such way. 5 mL of agents therein were taken and poured into 50 mL of potato dextrose agar for uniform mixing, and then the mixtures were poured into 5 culture media sterilized at high temperature respectively. The five pathogens were inoculated with inoculation loops respectively after cooling, sealed with sealing films and transferred to a proper temperature for observation. When colonies in the control group without the agents reached […], the colonies in the experimental groups were measured by a cross intersection method according to the following formula: Inhibition rate=(colony diameter of the control group−colony diameter of the experimental groups)/colony diameter of the control group×[…]

Another experiment has as its system B. cinerea. Conditions: Botrytis cinerea; for inhibition at 25 µg/mL: 25 mg/L; for inhibition at 50 µg/mL: 50 mg/L; for inhibition at 100 µg/mL: 100 mg/L. Here is the method:
as §1

Another experiment deals with F. oxysporum. Conditions: Fusarium oxysporum; for inhibition at 25 µg/mL: 25 mg/L; for inhibition at 50 µg/mL: 50 mg/L; for inhibition at 100 µg/mL: 100 mg/L. Here is the method: as §1
The next experiment deals with V. mali. Conditions: Cytospora mali; for inhibition at 25 µg/mL: 25 mg/L; for inhibition at 50 µg/mL: 50 mg/L; for inhibition at 100 µg/mL: 100 mg/L. Here is the method:
as §1

The next experiment deals with G. graminis. Conditions: Gaeumannomyces graminis; for inhibition at 25 µg/mL: 25 mg/L; for inhibition at 50 µg/mL: 50 mg/L; for inhibition at 100 µg/mL: 100 mg/L. Here is the method: as §1

On to `c1ccc(CN2Cc3cc4ccccc4nc3CC3CCCN3c3ccccc32)cc1` (stereo not drawn) [Compound 1], for which the inhibition at 25 µg/mL with C. gloeosporioides was 100%; with B. cinerea, at most 100%; with F. oxysporum, 49.3%; with V. mali it was at most 100%; with G. graminis, 36.9%. Further, the inhibition at 50 µg/mL in the experiment on C. gloeosporioides amounted to 100%; in the experiment on B. cinerea, 100%; with F. oxysporum it was 100%; in the experiment with V. mali, 100%; in the experiment with G. graminis, 54.1%. Further, the inhibition at 100 µg/mL with C. gloeosporioides was 100%; in the experiment on B. cinerea, 100%; in the experiment on F. oxysporum, 100%; in the experiment with V. mali, 100%; in the experiment on G. graminis, 68.9%.
On to `Fc1ccc(CN2Cc3cc4ccccc4nc3CC3CCCN3c3ccccc32)cc1` (stereo not drawn) [Compound 2], for which the inhibition at 25 µg/mL in the experiment with C. gloeosporioides is 92.4%; in the experiment with B. cinerea, at most 100%; in the experiment with F. oxysporum it was 100%; with V. mali, at most 100%; in the experiment on G. graminis it was 100%. Further, the inhibition at 50 µg/mL with C. gloeosporioides, with B. cinerea, in the experiment with F. oxysporum, in the experiment on V. mali and in the experiment on G. graminis was 100% throughout. For the same compound, the inhibition at 100 µg/mL with C. gloeosporioides, with B. cinerea, in the experiment with F. oxysporum, with V. mali and in the experiment on G. graminis was 100% throughout.
As to `Cc1ccc(CN2Cc3cc4ccccc4nc3CC3CCCN3c3ccccc32)cc1` (stereo not drawn) [Compound 3], the inhibition at 25 µg/mL in the experiment on C. gloeosporioides is 100%; in the experiment on B. cinerea it was at most 100%; in the experiment on F. oxysporum it was 100%; in the experiment on V. mali, at most 100%; in the experiment on G. graminis, 58.2%. In addition, the inhibition at 50 µg/mL in the experiment on C. gloeosporioides came to 100%; in the experiment on B. cinerea, 100%; in the experiment with F. oxysporum it was 100%; in the experiment on V. mali, 100%; in the experiment on G. graminis, 62.1%. The inhibition at 100 µg/mL in the experiment with C. gloeosporioides, with B. cinerea, in the experiment with F. oxysporum, in the experiment on V. mali and in the experiment on G. graminis was 100% throughout.
On to `COc1cccc(CN2Cc3cc4ccccc4nc3CC3CCCN3c3ccccc32)c1` (stereo not drawn) [Compound 4], for which the inhibition at 25 µg/mL with C. gloeosporioides was 100%; in the experiment on B. cinerea, at most 100%; in the experiment on F. oxysporum it was 100%; with V. mali it was at most 100%; with G. graminis, 61.2%. Moreover, the inhibition at 50 µg/mL in the experiment on C. gloeosporioides was determined as 100%; with B. cinerea, 100%; with F. oxysporum, 100%; in the experiment with V. mali it was 100%; in the experiment with G. graminis, 66.5%. Besides, the inhibition at 100 µg/mL in the experiment with C. gloeosporioides, with B. cinerea, in the experiment with F. oxysporum, in the experiment with V. mali and in the experiment with G. graminis was 100% in each case.
Turning to `Cc1ccc(CN2Cc3cc4ccccc4nc3CC3CCCN3c3cc(Cl)ccc32)cc1` (stereo not drawn) [Compound 5], the inhibition at 25 µg/mL in the experiment with C. gloeosporioides is 88.1%; with B. cinerea, at most 100%; in the experiment on F. oxysporum, 100%; in the experiment on V. mali, at most 100%; in the experiment with G. graminis, 35.9%. Further, the inhibition at 50 µg/mL in the experiment on C. gloeosporioides was determined as 100%; in the experiment with B. cinerea it was 100%; with F. oxysporum, 100%; in the experiment on V. mali, 100%; in the experiment with G. graminis, 51.9%. Further, the inhibition at 100 µg/mL with C. gloeosporioides was found to be 100%; in the experiment on B. cinerea, 100%; in the experiment on F. oxysporum it was 100%; in the experiment with V. mali, 100%; in the experiment with G. graminis, 75.1%.
As to `Cc1ccc(CN2Cc3cc4cc(C(F)(F)F)ccc4nc3CC3CCCN3c3ccccc32)cc1` (stereo not drawn) [Compound 6], the inhibition at 25 µg/mL with C. gloeosporioides is 74.6%; in the experiment on B. cinerea it was at most 100%; in the experiment with F. oxysporum, 86.5%; in the experiment on V. mali it was at most 100%; with G. graminis it was 56.3%. Further, the inhibition at 50 µg/mL is 82.1% in the experiment on C. gloeosporioides; 100% in the experiment with B. cinerea; 100% in the experiment with F. oxysporum; 100% in the experiment on V. mali; 100% with G. graminis. In addition, the inhibition at 100 µg/mL in the experiment on C. gloeosporioides, in the experiment on B. cinerea, in the experiment on F. oxysporum, in the experiment on V. mali and with G. graminis was 100% each time.

As a reminder, the inhibition is the relative decrease from the control value, in per cent. A high value points to strong suppression.
